Reference: the supplement of paper PMC10307832

How the values were obtained:
Assay in all cases: relative viability (nuclei count vs DMSO), 5 days (fraction); higher = more cells survive
[1] = compound: O=C(O)c1ccc2c(c1)nc(Nc1cccc(Cl)c1)c1ccncc12 [Silmitasertib] + CC1(C)CCC(c2ccc(Cl)cc2)=C(CN2CCN(c3ccc(C(=O)NS(=O)(=O)c4ccc(N[C@H](CCN5CCOCC5)CSc5ccccc5)c(S(=O)(=O)C(F)(F)F)c4)cc3)CC2)C1 [Navitoclax] (partner 0.5 µM)
In short: (§1)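 Relative viability divides the nuclei count in treated wells by that in vehicle wells. Lung cancer cell lines were seeded in 1536-well plates, dosed by pin tool the next day, and fixed and stained after 5 days in one step with final 0.05% Triton X-100, 1% formaldehyde and 1 ug/ml Hoechst. Dosing was a single drug or a fixed anchor-drug dose plus five library-drug doses (not always all listed) in √10 steps, and values are medians of duplicate plates imaged at 4×.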

[2] = compound: O=C(O)c1ccc2c(c1)nc(Nc1cccc(Cl)c1)c1ccncc12 [Silmitasertib] + O=C(c1cc(Cc2n[nH]c(=O)c3ccccc23)ccc1F)N1CCN(C(=O)C2CC2)CC1 [Olaparib] (partner 8 µM)
In short: as §1

[3] = compound: O=C(O)c1ccc2c(c1)nc(Nc1cccc(Cl)c1)c1ccncc12 [Silmitasertib] + COc1cc2c(Oc3ccc(NC(=O)C4(C(=O)Nc5ccc(F)cc5)CC4)cc3F)ccnc2cc1OCCCN1CCOCC1 [Foretinib] (partner 0.25 µM)
In short: as §1

[4] = compound: O=C(O)c1ccc2c(c1)nc(Nc1cccc(Cl)c1)c1ccncc12 [Silmitasertib] + Cc1nc(Nc2ncc(C(=O)Nc3c(C)cccc3Cl)s2)cc(N2CCN(CCO)CC2)n1 [Dasatinib] (partner 0.075 µM)
In short: as §1

[5] = compound: O=C(O)c1ccc2c(c1)nc(Nc1cccc(Cl)c1)c1ccncc12 [Silmitasertib] + Nc1ncn([C@H]2C[C@H](O)[C@@H](CO)O2)c(=O)n1 [Decitabine] (partner 2 µM)
In short: as §1

Cell Line	relative viability ([1]; first compound 0.04 µM)	relative viability ([1]; first compound 0.4 µM)	relative viability ([1]; first compound 1.265 µM)	relative viability ([1]; first compound 4 µM)	relative viability ([2]; first compound 0.04 µM)	relative viability ([2]; first compound 0.4 µM)	relative viability ([2]; first compound 1.265 µM)	relative viability ([2]; first compound 4 µM)	relative viability ([3]; first compound 0.04 µM)	relative viability ([3]; first compound 0.4 µM)	relative viability ([3]; first compound 1.265 µM)	relative viability ([3]; first compound 4 µM)	relative viability ([4]; first compound 0.04 µM)	relative viability ([4]; first compound 0.4 µM)	relative viability ([4]; first compound 1.265 µM)	relative viability ([4]; first compound 4 µM)	relative viability ([5]; first compound 0.04 µM)	relative viability ([5]; first compound 0.4 µM)	relative viability ([5]; first compound 1.265 µM)	relative viability ([5]; first compound 4 µM)
NCI-H1651	1.01	1.06	1.09	1.02	0.171	0.139	0.184	0.186	0.951	0.892	0.812	0.732	0.49	0.387	0.448	0.384	0.65	0.542	0.197	0.692
LC-2-ad	0.462	0.383	0.392	0.261	0.712	0.522	0.754	0.663	1.14	0.891	0.898	0.827	0.915	0.482	0.384	0.276	0.836	0.794	0.689	0.665
HCC-827	1.11		1.09	1.19	0.659		0.705	0.735	1.09		1.06	1.2	0.342		0.259	0.274	0.313		0.153	0.292
SK-LU-1	0.984	0.532	0.671	0.217	0.45	0.267	0.308	0.225	0.954	0.693	0.621	0.417	0.203	0.164	0.172	0.175	0.708	0.622	0.297	0.428
COR-L 105	0.999	0.691	0.71	0.563	0.716	0.614	0.689	0.5	1.44	0.881	0.791	0.562	0.357	0.345	0.34	0.264	0.626	0.599	0.672	0.454
LOU-NH91	0.852	0.596	0.549	0.464	0.941	0.839	0.8	0.814	0.948	0.786	0.859	0.827	0.585	0.475	0.46	0.383	0.876	0.801	0.754	0.782
LU99A	0.911	0.735	0.622	0.546	0.277	0.287	0.216	0.204	0.823	0.833	0.844	0.738	0.478	0.46	0.369	0.434	0.824	0.837	0.808	0.605
NCI-H1650	1.38	1.24	0.695	0.414	0.833	0.798	0.646	0.493	1.47	1.34	0.902	0.653	0.358	0.35	0.248	0.242	0.525	0.419	0.315	0.254
SW 1573	1.07	1.02	0.824	0.815	0.552	0.457	0.428	0.427	0.882	0.801	0.744	0.202	0.624	0.516	0.576	0.451	0.515	0.406	0.441	0.372
HOP-62	0.996		0.961	0.849	0.427		0.378	0.338	1.1		1.18	1.14	0.683		0.639	0.567	0.24		0.203	0.211
UMC-11	0.337	0.278	0.207	0.162	0.335	0.298	0.301	0.26	1.19	1.16	1.11	0.619	0.508	0.477	0.491	0.331	0.688	0.464	0.587	0.541
NCI-H1734	0.884		0.781	0.737	0.607	0.373	0.583	0.549	0.877	0.8	0.781	0.753	0.498	0.422	0.471	0.487	0.613	0.52	0.536	0.412
EKVX	0.874	0.648	0.681	0.681	0.889		0.7	0.784	0.783	0.435	0.408	0.411	0.6	0.394	0.478	0.373	0.421		0.374	0.299
HARA	1.16	0.88	0.944	0.984	1.25	0.595	0.634	0.276	0.87	0.627	0.473	0.734	0.254	0.246	0.253	0.272	0.698	0.554	0.494	0.355
EMC-BAC-2	1.24	1.03	1.14	1.09	0.477	0.358	0.333	0.283	1.04	0.861	0.577	0.411	0.34	0.301	0.283	0.287	1.01	0.951	0.93	0.819
PC-14	1.12	1.09	1.07	1.11	0.346	0.163	0.34	0.272	1.05	1.02	0.965	0.461	0.273	0.236	0.293	0.388	0.265	0.214	0.271	0.192
NCI-H520	1.11	0.917	1.04	0.863	0.365	0.318	0.295	0.262	0.742	1	0.934	0.711	0.274	0.215	0.196	0.193	0.586	0.578	0.528	0.502

Cell Line	relative viability ([1]; first compound 0.04 µM)	relative viability ([1]; first compound 0.4 µM)	relative viability ([1]; first compound 1.265 µM)	relative viability ([1]; first compound 4 µM)	relative viability ([2]; first compound 0.04 µM)	relative viability ([2]; first compound 0.4 µM)	relative viability ([2]; first compound 1.265 µM)	relative viability ([2]; first compound 4 µM)	relative viability ([3]; first compound 0.04 µM)	relative viability ([3]; first compound 0.4 µM)	relative viability ([3]; first compound 1.265 µM)	relative viability ([3]; first compound 4 µM)	relative viability ([4]; first compound 0.04 µM)	relative viability ([4]; first compound 0.4 µM)	relative viability ([4]; first compound 1.265 µM)	relative viability ([4]; first compound 4 µM)	relative viability ([5]; first compound 0.04 µM)	relative viability ([5]; first compound 0.4 µM)	relative viability ([5]; first compound 1.265 µM)	relative viability ([5]; first compound 4 µM)
NCI-H1755	1.04	0.942	0.991	0.959	0.892	0.783	0.858	1.01	0.945	0.911	0.901	1.07	0.382	0.419	0.408	0.363	0.715	0.735	0.735	0.762
NCI-H2087	1.11	0.855	0.689	0.319	0.614	0.217	0.465	0.38	1.22		0.741	0.806	0.828		0.695	0.308	0.414	0.286	0.181	0.199
NCI-H2023	0.999	1.01	0.96	0.73	0.532	0.363	0.46	0.468	0.886	0.75	0.551	0.707	0.547	0.443	0.548	0.416	0.239	0.225	0.208	0.195
NCI-H2085	1.15	0.942	0.933	0.874	0.805	0.529	0.731	0.684	0.918		0.952	0.861	0.253	0.233	0.245	0.265	0.594	0.553	0.553	0.459
LCLC-97TM1	0.504		0.484	0.279	0.382		0.213	0.234	0.905		0.809	0.861	0.976		0.916	0.767	0.236		0.209	0.251
NCI-H2126	0.897	0.847	0.81	0.745	0.914	0.73	0.821	0.818	1.21		1.03	1.07	0.602	0.584	0.573	0.539	0.585	0.631	0.497	0.508
201T	1.21	1.19	1.26	1.31	0.82	0.756	0.945	0.953	1.2	1.19	1.09	1.21	0.533	0.593	0.522	0.612	0.851	0.841	0.847	0.903
NCI-H1915	0.839		0.888	0.64	0.262		0.263	0.201	1.13		1.05	0.991	0.32		0.332	0.192	0.266		0.259	0.253
BEN	0.0617	0.0687	0.059	0.0431	1.31	0.506	0.964	1.15	0.858		0.657	0.467	0.382		0.295	0.233	0.866	0.685	0.537	0.656
NCI-H2347	0.891	0.692	0.745	0.665	0.602	0.52	0.56	0.507	0.612	0.762	0.885	0.561	0.581		0.313	0.254	0.637	0.558	0.606	0.579
H3255	0.593	0.294	0.347	0.208	0.579	0.492	0.549	0.53	1.02	0.549	0.746	0.97	0.364	0.34	0.298	0.349	0.563	0.703	0.543	0.532
NCI-H441	0.463		0.509	0.385	0.604		0.647	0.341	0.871		0.67	0.277	0.651		0.532	0.333	0.207		0.216	0.231
NCI-H1975	1.04	0.699	1.06	0.716	0.818		0.658	0.832	0.883		0.802	0.83	0.401		0.324	0.432	0.455		0.277	0.401
NCI-H647	1.05	0.826	0.85	0.57	0.625	0.431	0.57	0.325	1.21	1.04	0.874	1.06	0.185	0.266	0.171	0.0776	0.411	0.387	0.344	0.288
A-427	1.05		0.943	0.566	0.87	0.616	0.762	0.579	1.1		1.13	0.869	0.724		0.858	0.335	0.525	0.554	0.461	0.421
LXF-289	0.917		1.01	1	0.995		0.935	1.07	0.983		1.04	1.05	0.181		0.346	0.363	0.41		0.377	0.405
NCI-H727	0.425	0.343	0.365	0.275	0.709	0.59	0.584	0.681	0.915	0.689	0.695	1.03	0.326	0.358	0.272	0.379	1.09	0.844	0.544	0.691
